Results: ChEMBL document CHEMBL1201862, “PubChem BioAssay data set” (2004)
“And” between values parts separate entries of the source, which are not always exact repeats. Identical values can stand only once.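 How tested: cells in 96-well plates exposed to compound for 48 hours at five concentrations. GI50 is the concentration that inhibits growth by half.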 The source made the active and inactive calls. Rule as the data show it: active = GI50 up to about 1.1 µM and inactive = higher. Residues, ends and D or L forms follow the SMILES beside them. *: point of attachment. Boc = CC(C)(C)OC(=O)*; OBn = c1ccc(CO*)cc1

Columns and labels:
Experiment in all cases: NCI anticancer screen, dose series, 48 h
[1] = system: HL-60
[2] = system: RXF 393
[3] = system: M14
[4] = system: LOX IMVI
[5] = system: 786-0
[6] = system: T47D
[7] = system: A549
[8] = system: DU-145
[9] = system: SF-295
[10] = system: NCI-H522
[11] = system: SNB-19
[12] = system: RPMI-8226
[13] = system: TK-10
[14] = system: HCT-15
[15] = system: MDA-N
[16] = system: ACHN
[17] = system: OVCAR-8
[18] = system: NCI-H460
[19] = system: OVCAR-4

| Compound | GI50 [1] | GI50 [2] | GI50 [3] | GI50 [4] | GI50 [5] | GI50 [6] | GI50 [7] | GI50 [8] | GI50 [9] | GI50 [10] | GI50 [11] | GI50 [12] | GI50 [13] | GI50 [14] | GI50 [15] | GI50 [16] | GI50 [17] | GI50 [18] | GI50 [19] |
| --- | --- | --- | --- | --- | --- | --- | --- | --- | --- | --- | --- | --- | --- | --- | --- | --- | --- | --- | --- |
| COC(=O)C1OC(O[C@H]2CC[C@]3(C)[C@H]4CC=C5[C@@H]6CC(C)(C)CC[C@]6(C(=O)OC6OCC(O)C(O)C6OC6OC(C)C(OC7OCC(O)C(O)C7O)C(O)C6O)[C@H](O)C[C@@]5(C)[C@]4(C)CC[C@H]3C2(C)C)C(O)C(O)C1O (some centres undefined) | 2.63 µM (inactive) and 2.56 µM (inactive) | 11.3 µM (inactive) and 14.9 µM (inactive) | 2.75 µM (inactive) and 3.91 µM (inactive) | 3.36 µM (inactive) and 6.43 µM (inactive) | 5.56 µM (inactive) and 8.55 µM (inactive) | 8.28 µM (inactive) and 5.32 µM (inactive) | 3.9 µM (inactive) and 3.47 µM (inactive) | 9.73 µM (inactive) and 13.4 µM (inactive) | 3.95 µM (inactive) and 3.91 µM (inactive) | 1.78 µM (inactive) and 2.63 µM (inactive) | 4.56 µM (inactive) and 7.24 µM (inactive) | 4.51 µM (inactive) and 5.06 µM (inactive) | 8.15 µM (inactive) and 9.68 µM (inactive) | 12.9 µM and 13.7 µM | 1.87 µM (inactive) and 3.43 µM (inactive) | 4.35 µM (inactive) and 4.5 µM (inactive) | – | – | – |
| N#Cc1nc(C#N)c(N)[nH]1 | > 100 µM (inactive) | > 100 µM (inactive) | > 100 µM (inactive) | > 100 µM (inactive) | > 100 µM (inactive) | > 100 µM (inactive) | > 100 µM (inactive) | > 100 µM (inactive) | > 100 µM (inactive) | > 100 µM (inactive) | > 100 µM (inactive) | > 100 µM (inactive) | > 100 µM (inactive) | > 100 µM | > 100 µM (inactive) | > 100 µM (inactive) | > 100 µM (inactive) | > 100 µM (inactive) | > 100 µM (inactive) |
| CCN(CC)C(=S)N/N=C(/C)c1cccc(/C(C)=N\NC(=S)N(CC)CC)n1 | 0.055 µM (active) | 2.3 µM (inactive) | 1.38 µM (inactive) | 1.81 µM (inactive) | 1.45 µM (inactive) | 4.88 µM (inactive) | 2.86 µM (inactive) | 0.414 µM (active) | 1.66 µM (inactive) | 3.23 µM (inactive) | 4.39 µM (inactive) | 2.08 µM (inactive) | 1.27 µM (inactive) | 2.3 µM | 6.37 µM (inactive) | 0.678 µM (active) | 1.44 µM (inactive) | 1.53 µM (inactive) | 1.25 µM (inactive) |
| OC1[C@H](O)CN(OCc2ccccc2)C[C@@H]1O (some centres undefined) | > 100 µM (inactive) | > 100 µM (inactive) | > 100 µM (inactive) | > 100 µM (inactive) | > 100 µM (inactive) | > 100 µM (inactive) | > 100 µM (inactive) | > 100 µM (inactive) | > 100 µM (inactive) | > 100 µM (inactive) | > 100 µM (inactive) | > 100 µM (inactive) | > 100 µM (inactive) | > 100 µM | > 100 µM (inactive) | > 100 µM (inactive) | > 100 µM (inactive) | > 100 µM (inactive) | > 100 µM (inactive) |
| O=C(NN1CCCCC1)c1cc2cc(CCl)ccc2oc1=O | 16.5 µM (inactive) | 18.5 µM (inactive) | 18.8 µM (inactive) | 18.5 µM (inactive) | 16.5 µM (inactive) | 20.9 µM (inactive) | 19.6 µM (inactive) | 29.4 µM (inactive) | 20.1 µM (inactive) | 8.75 µM (inactive) | 23.6 µM (inactive) | 24 µM (inactive) | 17 µM (inactive) | 17.7 µM | 15.7 µM (inactive) | 44.5 µM (inactive) | 22.1 µM (inactive) | 14.9 µM (inactive) | 18.4 µM (inactive) |
| CC(=O)C1=C(C)N2C(=NC3=C(CCc4ccccc43)C2c2ccc(Cl)cc2)S1 (centres undefined) | 4.42 µM (inactive) | 5.56 µM (inactive) | > 40.4 µM (inactive) | > 81.1 µM (inactive) | > 52.4 µM (inactive) | 5.53 µM (inactive) | 53.8 µM (inactive) | > 100 µM (inactive) | > 100 µM (inactive) | 6.53 µM (inactive) | > 100 µM (inactive) | 2.12 µM (inactive) | > 100 µM (inactive) | 29.2 µM | 46.8 µM (inactive) | > 100 µM (inactive) | > 100 µM (inactive) | 16.1 µM (inactive) | > 36.1 µM (inactive) |
| Cc1nc2ccc(Cl)cc2c2c1CCO2 | 41.5 µM (inactive) | 24.4 µM (inactive) | – | 67.5 µM (inactive) | > 100 µM (inactive) | 88.7 µM (inactive) | 63 µM (inactive) | 86.5 µM (inactive) | 75.7 µM (inactive) | > 100 µM (inactive) | 60.4 µM (inactive) | > 100 µM (inactive) | 64.7 µM (inactive) | 90.2 µM | 36.3 µM (inactive) | 86.5 µM (inactive) | 99.5 µM (inactive) | 54.2 µM (inactive) | > 100 µM (inactive) |
| COc1ccc([N+](=O)[O-])c2c(NCC(O)CO)ccnc12 (centres undefined) | 51.1 µM (inactive) | 28.1 µM (inactive) | 52.7 µM (inactive) | 36.1 µM (inactive) | 67.6 µM (inactive) | 36.4 µM (inactive) | 35 µM (inactive) | 83.9 µM (inactive) | 39.8 µM (inactive) | 15.5 µM (inactive) | 93.8 µM (inactive) | 62.7 µM (inactive) | 67.5 µM (inactive) | 16.1 µM | 49.3 µM (inactive) | 43.8 µM (inactive) | 50.4 µM (inactive) | 16.9 µM (inactive) | 13.5 µM (inactive) |
| CCOC1(OCC)C2C=CC1C(COS(=O)(=O)c1ccc(C)cc1)C2COS(=O)(=O)c1ccc(C)cc1 (centres undefined) | 16.9 µM (inactive) | 39.9 µM (inactive) | 26.8 µM (inactive) | 24.9 µM (inactive) | 33.3 µM (inactive) | 14.2 µM (inactive) | 34.6 µM (inactive) | 39.8 µM (inactive) | 96.6 µM (inactive) | 18.1 µM (inactive) | 33.8 µM (inactive) | – | 41.2 µM (inactive) | 26 µM | 28.8 µM (inactive) | 33.7 µM (inactive) | 40.9 µM (inactive) | 35.5 µM (inactive) | 20.8 µM (inactive) |
| Cc1nc(N(C(C)C)C(C)C)c(C(C)C)o1 | > 100 µM (inactive) | > 100 µM (inactive) | > 100 µM (inactive) | > 100 µM (inactive) | > 100 µM (inactive) | > 100 µM (inactive) | > 100 µM (inactive) | > 100 µM (inactive) | > 100 µM (inactive) | > 100 µM (inactive) | > 100 µM (inactive) | – | > 100 µM (inactive) | > 100 µM | > 100 µM (inactive) | > 100 µM (inactive) | > 100 µM (inactive) | > 100 µM (inactive) | > 100 µM (inactive) |
| CC(C)C(NC(=O)CNC(=O)C1CCCN1C(=O)C(NC(=O)OC(C)(C)C)C(C)C)C(=O)NCC(=O)OCc1ccccc1 (centres undefined) (Boc-VPGVG-OBn; configuration not given here) | > 100 µM (inactive) and 72.8 µM (inactive) | > 100 µM (inactive) | > 100 µM (inactive) | > 100 µM (inactive) | > 100 µM (inactive) | > 100 µM (inactive) | > 100 µM (inactive) | > 100 µM (inactive) | > 100 µM (inactive) | > 100 µM (inactive) | > 100 µM (inactive) | > 100 µM (inactive) | – | > 100 µM | > 100 µM (inactive) | > 100 µM (inactive) | > 100 µM (inactive) | > 100 µM (inactive) | > 100 µM (inactive) |
| CCSC1=C(C#N)C2(CCCCC2)C2=C(O)CC(C)(C)CC2=N1 | > 100 µM (inactive) | 52.7 µM (inactive) | > 100 µM (inactive) | > 100 µM (inactive) | 31.8 µM (inactive) | 86.1 µM (inactive) | 34.4 µM (inactive) | 25.5 µM (inactive) | – | 39.4 µM (inactive) | 25.2 µM (inactive) | 70.3 µM (inactive) | 11.1 µM (inactive) | 64.7 µM | > 100 µM (inactive) | 24.7 µM (inactive) | 36.5 µM (inactive) | < 0.01 µM (active) | 18.8 µM (inactive) |
| Brc1ccc(/N=N/N2CCCC2)cc1 | 38.8 µM (inactive) | 81.7 µM (inactive) | > 100 µM (inactive) | 40.4 µM (inactive) | > 100 µM (inactive) | 14.4 µM (inactive) | 74.1 µM (inactive) | 49.7 µM (inactive) | 77.1 µM (inactive) | 27.4 µM (inactive) | > 100 µM (inactive) | 51.1 µM (inactive) | 82.4 µM (inactive) | 50.7 µM | 64.9 µM (inactive) | 71.6 µM (inactive) | – | 48.2 µM (inactive) | > 100 µM (inactive) |
| CCCCCCCC1c2cc3nc(cc4[nH]c(cc5nc(cc([nH]2)[C@@]1(C)CC(=O)N(C)C)C(C)=C5CCC(=O)O)c(CCC(=O)O)c4C)C=C3C (some centres undefined) | 23.7 µM (inactive) | 17.8 µM (inactive) | 14.7 µM (inactive) | 17.6 µM (inactive) | 29.5 µM (inactive) | 34.9 µM (inactive) | 50.2 µM (inactive) | 21.4 µM (inactive) | 18.9 µM (inactive) | 18.4 µM (inactive) | 20.6 µM (inactive) | 17.7 µM (inactive) | 37.2 µM (inactive) | 20.3 µM | 31 µM (inactive) | 18.5 µM (inactive) | – | 20.8 µM (inactive) | 32.8 µM (inactive) |
| O=c1[nH]c2nc3ccccc3c(=O)n2/c1=C/c1ccc(Cl)cc1 | 48.8 µM (inactive) | 46.5 µM (inactive) | 36.9 µM (inactive) | 30.4 µM (inactive) | 24.2 µM (inactive) | 36.2 µM (inactive) | > 100 µM (inactive) | 33.3 µM (inactive) | 54.6 µM (inactive) | 12.6 µM (inactive) | 23.4 µM (inactive) | 82.8 µM (inactive) | 58.5 µM (inactive) | 27.2 µM | 22.2 µM (inactive) | 65.3 µM (inactive) | 16.1 µM (inactive) | – | > 100 µM (inactive) |
